Test results taken from patent US7416724B2, “Diagnosis and treatment of diseases arising from defects in the tuberous sclerosis pathway” (The Regents of the University of Michigan, priority 2002, dated 2008).
Entries after “also recorded” stand apart in the source; their conditions may differ. Where two headings read alike, the source gives them in different places.

How the values were obtained:
mTOR = assay: Phosphorylation of mTOR at Ser 2448, immunoblot with anti-phospho-mTOR antibody; assay type: cell-based; details: 25 mM, FIG. 8C
Text: (§1) Anti-S6K, anti-phospho S6K, anti-mTOR, anti-phospho mTOR, anti-Akt, anti-phospho Akt, antiphospho 4EBP-1 and anti-phospho ERK antibodies were from Cell Signalling Inc. Anti-TSC2 and anti-Myc antibodies were from Santa Cruz Biotechnology (Santa Cruz, Calif.). Anti-HA and anti-Flag antibodies were from Covance (Princeton, N.J.) and Sigma (St Louis, Mo.), respectively. HA-tagged S6K1 (II) and GST-S6 constructs were obtained from J. Blenis (Columbia Univ., NY, N.Y.). […] All other DNA constructs, including H-RasV12, PTEN, PTEN-CS, Akt, Akt-KM, Flag-ubiquitin and Flag-4E-BP1, were laboratory stock. All mutant constructs of TSC2 were created by PCR mutagenesis and verified by DNA sequencing. LY294002 was from Calbiochem (San Diego, Calif.); phosphatase was from New England Biolabs (Beverly, Mass.). MG132 was from the Peptide Institute. Cycloheximide and wortmannin were from Sigma. D-PBS was from Gibco. Rapamycin was from Cell Signalling.
(§2) HEK293 cells were seeded and maintained in Dulbecco's modified Eagle's medium (DMEM) containing 10% fetal bovine serum (FBS). Transfection was performed in serum-free conditions using Lipofectamine reagent (Invitrogen, Carlsbad, Calif.) in accordance with the manufacturer's instructions. […] Immunocomplexes were analyzed by SDS-polyacrylamide gel electrophoresis (PAGE).

Akt = assay: Phosphorylation of Akt, immunoblot; assay type: cell-based
Text: as §1, §2

AMPK [1] = details: Corton et al., 1995; cited from earlier work
intracellular ATP [2] = details: concentrations between 20 and 100 mM (Dennis et al., 2001); cited from earlier work
TSC2 [3] = assay: In vivo 32P-labelling and two-dimensional phosphopeptide mapping of TSC2; assay type: cell-based, rat
Protocol: HEK293 cells were cotransfected with HA-tagged TSC2, Myc-tagged TSC1 and the indicated plasmids. Cells were phosphate- and serum-starved for 4 h before incubation with 0.25 mCi ml^−1 32P-orthophosphate (ICN) for 4 h.
Cells were washed once with ice-cold PBS and lysed. HA-tagged TSC2 was immunoprecipitated, resolved by SDS-PAGE and transferred to a PVDF membrane. Phosphorylated TSC2 was visualized by autoradiography and phosphopeptide mapping was then performed. In brief, the phosphorylated TSC2 bands were excised, fixed in methanol and incubated in 500 1 of 0.5% polyvinylpyrrolidone-40 dissolved in 100 mM acetic acid for 30 min at 37° C. The sample were then digested with 20 g of TPCK-treated trypsin (Sigma) at 37° C. in 75 mM ammonium bicarbonate buffer at pH 8.0 containing 5% acetonitrile. After digestion, samples were dried under vacuum and suspended in 10 1 of water. Samples were spotted onto a cellulose plate and first dimensional electrophoresis was performed using 1% ammonium bicarbonate buffer at pH 8.9. The plates were separated by chromatography in the second dimension in chromatography buffer (n-butanol:pyridine:acetic acid:water; 20:24:6:30). The plates were dried and phosphopeptides were visualized by autoradiography.

4EBP1 [4] = details: concentrations between 20 and 100 mM (Dennis et al., 2001); cited from earlier work
4EBP1 [5] = assay: Phosphorylation of 4EBP1, immunoblot; assay type: cell-based
Text: as §1
(§3) HEK293 cells were seeded and maintained in Dulbecco's modified Eagle's medium (DMEM) containing 10% fetal bovine serum (FBS). Transfection was performed in serum-free conditions using Lipofectamine reagent (Invitrogen, Carlsbad, Calif.) in accordance with the manufacturer's instructions. In brief, 4 h after transfection, the cells were recovered in DMEM containing 10% FBS for 16 h and then starved for […]. Cells were then lysed in lysis buffer (10 mM Tris-HCl at pH 7.5, 100 mM sodium chloride, 1% NP-40, 1% Triton X-100, 50 mM sodium fluoride, 2 mM EDTA, 1 mM phenyl methylsulphonyl fluoride, 10 g ml^−1 leupeptin and 10 g ml^−1 aprotinine) and immunoprecipitated with the indicated antibodies and protein G-Sepharose beads. Immunocomplexes were analyzed by SDS-polyacrylamide gel electrophoresis (PAGE).

S6K [6] = details: Kimura et al., 2003; Krause et al., 2002; cited from earlier work
AMPK and TSC2 = assay: Co-immunoprecipitation of AMPK and TSC2; assay type: cell-based
Protocol: as §3

HEK293 cells = assay: Cell size of HEK293 cells; assay type: cell-based; details: 12.5 mM 2-DG, TSC2 RNAi, or 20 nM rapamycin for 72 hours, FIG. 14D
S6K [7] = details: concentrations between 20 and 100 mM (Dennis et al., 2001); cited from earlier work
[8] = test system: eukaryotic elongation factor 2 (eEF2); details: Horman et al., 2002; cited from earlier work
S6K [9] = assay: Phosphorylation of S6K, immunoblot with anti-phospho S6K antibody; assay type: cell-based; details: for phosphorylation of S6K on T389: endogenous S6K
Text: as §1, §3

TSC1 = TSC1 mobility on SDS-PAGE; assay type: cell-based; details: FIG. 11A
Protocol: as §3

S6 = assay: Phosphorylation of S6, immunoblot; assay type: cell-based; details: FIG. 8C
Protocol: as §3

intracellular ATP [10] = assay: Intracellular ATP levels and AMP/ATP ratio; assay type: cell-based; details: cells treated with 25 mM
AMPK [11] = assay: AMPK activation (T172 phosphorylation); assay type: cell-based; details: 25 mM
TSC2 [12] = assay: TSC2 mobility shift on SDS-PAGE; assay type: cell-based; details: for mobility of TSC2 / 2-DG induced mobility shift: HEK293 cells, 10 μM, added 30 minutes before 2-DG, FIG. 11C
Protocol: as §3

S6K-dC104 = assay: Thr 389 phosphorylation and kinase activity of rapamycin-resistant mutant S6K-dC104; assay type: cell-based; details: FIG. 7a
Protocol: For the S6K assays, HEK293 cells grown in six-well plates were transfected with 10-20 ng HA-S6K constructs, with or without various plasmids, as indicated in the figures. HA-S6K was immunoprecipitated from serum-starved cells with an anti-HA antibody and analyzed by in vitro kinase assay using purified GST-S6 as a substrate (Pearson et al., EMBO J. 14, 5279-5287 (1995)).

[13] = test system: LEF (TSC2-/- epithelial) cells; assay: Cell death / apoptosis of LEF cells; assay type: cell-based; details: vector and wild type TSC2 expressing LEF cells
[14] = EEF8 (TSC2-/-) fibroblasts, vector infected, FIG. 13C
[15] = EEF8 cells expressing wild type TSC2, FIG. 13C
[16] = depletion of cellular ATP, FIG. 8A

In the case of O=CC[C@@H](O)[C@H](O)[C@H](O)CO [2-DG, 2-deoxy-glucose], the “phosphorylation of mTOR S2448” value (mTOR) is given as “inhibited; also recorded: dephosphorylation”, the Akt phosphorylation (Akt; 25 mM, FIG. 8C) is given as “had little effect” and the AMPK activation (AMPK [1]) is given as “activate AMPK”. For the same compound, the “reduction of intracellular ATP levels” value (intracellular ATP [2]) was 20 to 50%, the “phosphorylation of TSC2 phosphopeptides” value (TSC2 [3]; 25 and 40 mM, FIG. 12A) was “enhanced phosphorylation of several peptides; also recorded: induce TSC2 phosphorylation on multiple spots” and the 4EBP1 phosphorylation (4EBP1 [4]) was “inhibition”. The 4EBP1 phosphorylation (4EBP1 [5]; EEF4 (TSC2+/+) cells, FIG. 10G) was “inhibition of phosphorylation”, the 4EBP1 phosphorylation (4EBP1 [5]; [14]) was “caused little decrease” and the 4EBP1 phosphorylation (4EBP1 [5]; [15]) was “significantly decreased”. For the same compound, the “phosphorylation of endogenous 4EBP1” value (4EBP1 [5]; FIG. 8C) was “specifically inhibits; also recorded: dephosphorylation”, the “phosphorylation of 4EBP1” value (4EBP1 [5]; [16]) was “caused a dephosphorylation” and the S6K activity (S6K [6]) was “inhibit S6K activity”. For the same compound, the “interaction between endogenous AMPK and overexpressed TSC2” value (AMPK and TSC2; FIG. 9D) was “enhances the interaction”, the “interaction between endogenous AMPK and TSC2 (co-immunoprecipitation)” value (AMPK and TSC2; HEK293 cells, FIG. 9A, B) was “interact preferentially; also recorded: enhanced; also recorded: stimulates the interaction” and the cell size (HEK293 cells) was “decreases cell size; also recorded: significantly decreased cell size”. The S6K phosphorylation (S6K [7]) was “inhibition”, the “phosphorylation of eEF2” value [8] was “increase phosphorylation” and the “phosphorylation of S6K on T389” value (S6K [9]; 25 mM, FIG. 8C) was “effectively inhibited; also recorded: dephosphorylation”. For the same compound, the “S6K phosphorylation as a function of treatment time” value (S6K [9]; 25 mM, time course, FIG. 8E) was “concomitant dephosphorylation”, the S6K phosphorylation (S6K [9]; [14]) was “caused little decrease” and the S6K phosphorylation (S6K [9]; [15]) was “significantly decreased”. The “phosphorylation of S6K” value (S6K [9]; [16]) was “caused a dephosphorylation”, the “mobility of TSC1” value (TSC1) was “did not alter the mobility” and the “phosphorylation of endogenous S6” value (S6) was “dephosphorylation”. The ATP levels (intracellular ATP [10]; FIG. 8F) was “statistically significant reduction; also recorded: decreases”, the AMP/ATP ratio (intracellular ATP [10]; FIG. 8G) was “increases” and the “T172 phosphorylation in AMPK” value (AMPK [11]; FIG. 8D) was “dramatic increase; also recorded: induces phosphorylation”. For the same compound, the “AMPK activation as a function of treatment time” value (AMPK [11]; time course, FIG. 8E) was “rapid AMPK activation” and the “mobility shift of TSC2” value (TSC2 [12]; FIG. 11A) was “mobility shift”.
For NC(=O)c1ncn([C@@H]2O[C@H](COP(=O)(O)O)[C@@H](O)[C@H]2O)c1N [AICAR, 5-aminoimidazole-4-carboxyamide ribonucleotide], the AMPK activation (AMPK [1]) is given as “activate AMPK”, the S6K activity (S6K [6]) is given as “inhibit S6K activity” and the “phosphorylation of eEF2” value [8] is given as “increase phosphorylation”.
For CO[C@H]1C[C@@H]2CC[C@@H](C)[C@@](O)(O2)C(=O)C(=O)N2CCCC[C@H]2C(=O)O[C@H]([C@H](C)C[C@@H]2CC[C@@H](O)[C@H](OC)C2)CC(=O)[C@H](C)/C=C(\C)[C@@H](O)[C@@H](OC)C(=O)[C@H](C)C[C@H](C)/C=C/C=C/C=C/1C [rapamycin], the “phosphorylation of Thr 389 in S6K-dC104” value (S6K-dC104) was “not inhibited”.
In the case of COc1cc([C@@H]2c3cc4c(cc3[C@@H](O[C@@H]3O[C@@H]5CO[C@@H](C)O[C@H]5[C@H](O)[C@H]3O)[C@H]3COC(=O)[C@H]23)OCO4)cc(OC)c1O [etoposide], the cell death [13] is reported as “caused cell death”.
With N#CC(C#N)=NNc1ccc(OC(F)(F)F)cc1 [FCCP] the “phosphorylation of 4EBP1” value (4EBP1 [5]) was “caused a dephosphorylation”, the S6K phosphorylation (S6K [9]) was “caused a decrease” and the “phosphorylation of S6K” value (S6K [9]) was “caused a dephosphorylation”.
In the case of CC(=O)c1c(O)c(C)c(O)c(Cc2c(O)c3c(c(C(=O)/C=C/c4ccccc4)c2O)OC(C)(C)C=C3)c1O [Rottlerin], the “phosphorylation of 4EBP1” value (4EBP1 [5]; [16]) is reported as “caused a dephosphorylation”, the S6K phosphorylation (S6K [9]; EEF4 (TSC2+/+) fibroblasts, FIG. 10F) is reported as “caused a decrease” and the “phosphorylation of S6K” value (S6K [9]; [16]) is reported as “caused a dephosphorylation”.
In the case of “insulin: stimulus of the insulin-Akt pathway, used at 400 nM”, the “phosphorylation of TSC2 phosphopeptides” value (TSC2 [3]; insulin (400 nM), LY294002 or rapamycin (20 nM), FIG. 3c) is reported as “slightly increased phosphorylation” and the “phosphorylation of Thr 389, Thr 421 and Ser 424 of S6K” value (S6K [9]; FIG. 1b) is reported as “stimulated”.
For OC[C@@H](O)[C@@H](O)[C@H](O)[C@H](O)CO [mannitol], the “phosphorylation of S6K on T389” value (S6K [9]; 25 mM, FIG. 8C) was “had little effect” and the “phosphorylation of S6K” value (S6K [9]; 100 mM, FIG. 8C) was “significantly inhibited”.
In the case of c1cc(-c2cnn3cc(-c4ccc(OCCN5CCCCC5)cc4)cnc23)ccn1 [Compound C], the Akt phosphorylation (Akt; HEK 293 cells, AMPK inhibitor treatment) is reported as “had no effect”, the “S6K dephosphorylation induced by glucose deprivation” value (S6K [9]; FIG. 11F, listed as AMPK inhibitor) is reported as “significantly blocked; also recorded: partially blocks” and the “inhibitory effect of 2-DG on S6K phosphorylation” value (S6K [9]; HEK 293 cells, FIG. 11E, listed as AMPK inhibitor) is reported as “significantly reversed; also recorded: blocks the 2-DG induced dephosphorylation”. The “mobility of TSC2 / 2-DG induced mobility shift” value (TSC2 [12]) was “blocks the 2-DG induced mobility shift” and the “mobility of TSC2 / 2-DG induced mobility shift” value (TSC2 [12]; listed as compound C) was “increased the mobility”.
